From patent publication US9422293B2 (priority 2006, dated 2016)
pIC50: −log10 of the molar value. Structures can show the parent of a compound that is named as a salt.

Molecular target: rat TRPV1 (Rattus norvegicus (Rat), UniProt O35433)
Details: read-out: Rat IC50
Experimental: Biological Testing: Functional Assay: Block of Capsaicin-Induced Ca^2+ Influx A. Human Assay
Cells were passaged frequently, every 3-5 days, to avoid overgrowth, depletion of essential medium components, or acidic medium exposure. Cells were passaged using a brief wash in 0.05% trypsin with 1 mM EDTA, followed by dissociation in divalent-free phosphate-buffered saline (Hyclone #SH30028.02). […] The assay buffer was composed of 130 mM NaCl, 2 mM KCl, 2 mM MgCl2, 10 mM HEPES, 5 mM glucose, and either 2 mM or 20 μM CaCl2. On the day of the experiment, the culture medium was replaced with 2 mM calcium assay buffer using an automated plate washer (ELx405; Biotek, VT). […] After loading the cells, the dye solution was replaced with 50 μL/well of 20 μM calcium assay buffer using the ELx405 plate washer. Test compounds (50 μL/well) were added to the plate and incubated for 30 min. […] The IC50 values were determined. […] The contents of the wells were mixed 3 times (40 μL mix volume) immediately after the additions were made. Concentration dependence of block was determined by exposing each well of cells in duplicate rows of a 96 well plate to a serial dilution of test compound. The concentration series usually started at 10 μM with a three-fold serial decrement in concentration. The magnitude of the capsaicin response was determined by measuring the change in fluo3 fluorescence before and 100 seconds after the addition of the agonist. Data were analyzed using a non-linear regression program (Origin; OriginLab, MA). IC50 values shown are the average (mean) of the results obtained.
The assay was performed as described above, using HEK293 cells transfected with rat TRPV1 (rTRPV1/HEK293). […] IC50 values shown are the average (mean) of the results obtained.

Sequence of rat TRPV1 (O35433 whole entry): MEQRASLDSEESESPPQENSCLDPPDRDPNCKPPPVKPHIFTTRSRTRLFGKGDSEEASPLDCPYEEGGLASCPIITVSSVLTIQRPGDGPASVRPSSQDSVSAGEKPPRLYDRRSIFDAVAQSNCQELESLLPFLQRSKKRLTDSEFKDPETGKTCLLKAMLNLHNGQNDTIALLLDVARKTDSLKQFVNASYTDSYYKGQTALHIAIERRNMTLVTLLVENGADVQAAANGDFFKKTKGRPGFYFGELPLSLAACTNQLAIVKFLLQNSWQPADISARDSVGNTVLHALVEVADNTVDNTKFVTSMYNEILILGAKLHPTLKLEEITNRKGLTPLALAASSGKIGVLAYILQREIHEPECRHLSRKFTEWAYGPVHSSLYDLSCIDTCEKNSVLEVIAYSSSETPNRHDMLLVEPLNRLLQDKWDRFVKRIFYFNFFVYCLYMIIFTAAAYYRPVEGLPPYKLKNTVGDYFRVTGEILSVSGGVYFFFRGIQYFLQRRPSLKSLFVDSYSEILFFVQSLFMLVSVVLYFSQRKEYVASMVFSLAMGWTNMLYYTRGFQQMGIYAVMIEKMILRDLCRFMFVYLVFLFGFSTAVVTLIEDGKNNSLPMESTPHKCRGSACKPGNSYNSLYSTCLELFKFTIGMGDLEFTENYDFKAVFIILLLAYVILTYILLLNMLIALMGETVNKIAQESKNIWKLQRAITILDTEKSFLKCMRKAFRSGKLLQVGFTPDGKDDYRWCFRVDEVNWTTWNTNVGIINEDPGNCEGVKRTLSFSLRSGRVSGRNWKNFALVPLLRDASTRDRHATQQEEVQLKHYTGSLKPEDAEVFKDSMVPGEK

Q: `FC(F)(F)c1ccc(Nc2nc(OC3CCOC3)nc3c2CCN(c2ncccc2C(F)(F)F)CC3)cc1` (centres unmarked) [Example 340, 2-(Tetrahydrofuran-3-yloxy)-N-[4-(trifluoromethyl)phenyl]-7-[3-(trifluoromethyl)pyridin-2-yl]-6,7,8,9-tetrahydro-5H-pyrimido[4,5-d]azepin-4-amine] was tested. Which pIC50 did it give?
A: 6.59

Q: How did the pIC50 turn out when `CC(C)Oc1nc2c(c(Nc3ccc(C(F)(F)F)cc3)n1)CCN(c1ncccc1C(F)(F)F)CC2` [Example 341, 2-[(1-Methylethyl)oxy]l-N-[4-(trifluoromethyl)phenyl]-7-[3-(trifluoromethyl)pyridin-2-yl]-6,7,8,9-tetrahydro-5H-pyrimido[4,5-d]azepin-4-amine trifluoroacetic acid salt] was run?
A: 6.82

Q: How did the pIC50 turn out when `FC(F)(F)c1ccc(Nc2nc(Oc3ccccc3)nc3c2CCN(c2ncccc2C(F)(F)F)CC3)cc1` [Example 342, 2-(Phenyloxy)-N-[4-(trifluoromethyl)phenyl]-7-[3-(trifluoromethyl)pyridin-2-yl]-6,7,8,9-tetrahydro-5H-pyrimido[4,5-d]azepin-4-amine trifluoroacetic acid salt] was run?
A: 7.22

Q: How did the pIC50 turn out when `CCCCOc1nc2c(c(Nc3ccc(C(F)(F)F)cc3)n1)CCN(c1ncccc1C(F)(F)F)CC2` [Example 343, 2-(Butyloxy)-N-[4-(trifluoromethyl)phenyl]-7-[3-(trifluoromethyl)pyridin-2-yl]-6,7,8,9-tetrahydro-5H-pyrimido[4,5-d]azepin-4-amine] was run?
A: 7.22

Q: `CCOc1nc2c(c(Nc3ccc(C(F)(F)F)cc3)n1)CCN(c1ncccc1C(F)(F)F)CC2` [Example 345, 2-(Ethyloxy)-N-[4-(trifluoromethyl)phenyl]-7-[3-(trifluoromethyl)pyridin-2-yl]-6,7,8,9-tetrahydro-5H-pyrimido[4,5-d]azepin-4-amine trifluoroacetic acid salt] was tested. Which pIC50 did it give?
A: 6.72

Q: `COCc1nc2c(c(Nc3ccc(C(F)(F)F)nc3)n1)CCN(c1ncccc1C(F)(F)F)CC2` [Example 346, 2-[(Methyloxy)methyl]-7-[3-(trifluoromethyl)pyridin-2-yl]-N-[6-(trifluoromethyl)pyridin-3-yl]-6,7,8,9-tetrahydro-5H-pyrimido[4,5-d]azepin-4-amine trifluoroacetic acid salt] was tested. Which pIC50 did it give?
A: < 5.18

Q: How did the pIC50 turn out when `COCc1nc2c(c(Nc3ccc(C(C)(C)C#N)cc3)n1)CCN(c1ncccc1C(F)(F)F)CC2` [Example 347, 2-Methyl-2-[4-({2-[(methyloxy)methyl]-7-[3-(trifluoromethyl)pyridin-2-yl]-6,7,8,9-tetrahydro-5H-pyrimido[4,5-d]azepin-4-yl}amino)phenyl]propanenitrile trifluoroacetic acid salt] was run?
A: 5.88

Q: How did the pIC50 turn out when `FC(F)(F)c1ccc(Nc2nc(Sc3ccccc3)nc3c2CCN(c2ncccc2C(F)(F)F)CC3)cc1` [Example 349, 2-(Phenylsulfanyl)-N-[4-(trifluoromethyl)phenyl]-7-[3-(trifluoromethyl)pyridin-2-yl]-6,7,8,9-tetrahydro-5H-pyrimido[4,5-d]azepin-4-amine] was run?
A: 5.63

Q: With `O=S(=O)(c1ccc(Nc2nc(Sc3ccccc3)nc3c2CCN(c2ncccc2C(F)(F)F)CC3)cc1)C(F)(F)F` [Example 350, 2-(Phenylsulfanyl)-7-[3-(trifluoromethyl)pyridin-2-yl]-N-{4-[(trifluoromethyl)sulfonyl]phenyl}-6,7,8,9-tetrahydro-5H-pyrimido[4,5-d]azepin-4-amine] as the compound, how does the pIC50 read?
A: 7.52

Q: `Cc1cc(C(F)(F)F)ccc1Nc1nc(Sc2ccccc2)nc2c1CCN(c1ncccc1C(F)(F)F)CC2` [Example 351, N-[2-Methyl-4-(trifluoromethyl)phenyl]-2-(phenylsulfanyl)-7-[3-(trifluoromethyl)pyridin-2-yl]-6,7,8,9-tetrahydro-5H-pyrimido[4,5-d]azepin-4-amine] was tested. Which pIC50 did it give?
A: 6.12

Q: With `CN1CCC(C)(C)c2ccc(Nc3nc(Sc4ccccc4)nc4c3CCN(c3ncccc3C(F)(F)F)CC4)cc21` [Example 352, 2-(Phenylsulfanyl)-7-[3-(trifluoromethyl)pyridin-2-yl]-N-(1,4,4-trimethyl-1,2,3,4-tetrahydroquinolin-7-yl)-6,7,8,9-tetrahydro-5H-pyrimido[4,5-d]azepin-4-amine] as the compound, how does the pIC50 read?
A: < 5.18

Q: `FC(F)(F)c1ccc(Nc2nc(SCc3ccccc3)nc3c2CCN(c2ncccc2C(F)(F)F)CC3)cc1` [Example 353, 2-[(Phenylmethyl)sulfanyl]-N-[4-(trifluoromethyl)phenyl]-7-[3-(trifluoromethyl)pyridin-2-yl]-6,7,8,9-tetrahydro-5H-pyrimido[4,5-d]azepin-4-amine] was tested. Which pIC50 did it give?
A: 6.62

Q: With `FC(F)(F)c1ccc(Nc2nc(SC3CCCCC3)nc3c2CCN(c2ncccc2C(F)(F)F)CC3)cc1` [Example 354, 2-(Cyclohexylsulfanyl)-N-[4-(trifluoromethyl)phenyl]-7-[3-(trifluoromethyl)pyridin-2-yl]-6,7,8,9-tetrahydro-5H-pyrimido[4,5-d]azepin-4-amine] as the compound, how does the pIC50 read?
A: 6.60

Q: With `CC(C)Sc1nc2c(c(Nc3ccc(C(F)(F)F)cc3)n1)CCN(c1ncccc1C(F)(F)F)CC2` [Example 355, 2-[(1-Methylethyl)sulfanyl]-N-[4-(trifluoromethyl)phenyl]-7-[3-(trifluoromethyl)pyridin-2-yl]-6,7,8,9-tetrahydro-5H-pyrimido[4,5-d]azepin-4-amine] as the compound, how does the pIC50 read?
A: 7.22

Q: With `O=S(=O)(c1ccc(Nc2nc(SCc3ccccc3)nc3c2CCN(c2ncccc2C(F)(F)F)CC3)cc1)C(F)(F)F` [Example 359, 2-[(Phenylmethyl)sulfanyl]-7-[3-(trifluoromethyl)pyridin-2-yl]-N-{4-[(trifluoromethyl)sulfonyl]phenyl}-6,7,8,9-tetrahydro-5H-pyrimido[4,5-d]azepin-4-amine] as the compound, how does the pIC50 read?
A: 6.49

Q: How did the pIC50 turn out when `O=S(=O)(c1ccc(Nc2nc(SC3CCCCC3)nc3c2CCN(c2ncccc2C(F)(F)F)CC3)cc1)C(F)(F)F` [Example 360, 2-(Cyclohexylsulfanyl)-7-[3-(trifluoromethyl)pyridin-2-yl]-N-{4-[(trifluoromethyl)sulfonyl]phenyl}-6,7,8,9-tetrahydro-5H-pyrimido[4,5-d]azepin-4-amine] was run?
A: 6.60

Q: `CC(C)Sc1nc2c(c(Nc3ccc(S(=O)(=O)C(F)(F)F)cc3)n1)CCN(c1ncccc1C(F)(F)F)CC2` [Example 361, 2-[(1-Methylethyl)sulfanyl]-7-[3-(trifluoromethyl)pyridin-2-yl]-N-{4-[(trifluoromethyl)sulfonyl]phenyl}-6,7,8,9-tetrahydro-5H-pyrimido[4,5-d]azepin-4-amine] was tested. Which pIC50 did it give?
A: 5.82

Q: `CC(O)CSc1nc2c(c(Nc3ccc(S(=O)(=O)C(F)(F)F)cc3)n1)CCN(c1ncccc1C(F)(F)F)CC2` (centres unmarked) [Example 362, 1-({7-[3-(Trifluoromethyl)pyridin-2-yl]-4-({4-[(trifluoromethyl)sulfonyl]phenyl}amino)-6,7,8,9-tetrahydro-5H-pyrimido[4,5-d]azepin-2-yl}sulfanyl)propan-2-ol] was tested. Which pIC50 did it give?
A: 6.72

Q: With `Cc1cc(C(F)(F)F)ccc1Nc1nc(SCc2ccccc2)nc2c1CCN(c1ncccc1C(F)(F)F)CC2` [Example 364, N-[2-Methyl-4-(trifluoromethyl)phenyl]-2-[(phenylmethyl)sulfanyl]-7-[3-(trifluoromethyl)pyridin-2-yl]-6,7,8,9-tetrahydro-5H-pyrimido[4,5-d]azepin-4-amine] as the compound, how does the pIC50 read?
A: 5.93

Q: How did the pIC50 turn out when `Cc1cc(C(F)(F)F)ccc1Nc1nc(SC(C)C)nc2c1CCN(c1ncccc1C(F)(F)F)CC2` [Example 366, 2-[(1-Methylethyl)sulfanyl]-N-[2-methyl-4-(trifluoromethyl)phenyl]-7-[3-(trifluoromethyl)pyridin-2-yl]-6,7,8,9-tetrahydro-5H-pyrimido[4,5-d]azepin-4-amine] was run?
A: 6.89

Q: With `Cc1cc(C(F)(F)F)ccc1Nc1nc(SCC(C)O)nc2c1CCN(c1ncccc1C(F)(F)F)CC2` (centres unmarked) [Example 367, 1-[(4-{[2-Methyl-4-(trifluoromethyl)phenyl]amino}-7-[3-(trifluoromethyl)pyridin-2-yl]-6,7,8,9-tetrahydro-5H-pyrimido[4,5-d]azepin-2-yl)sulfanyl]propan-2-ol] as the compound, how does the pIC50 read?
A: < 5.18

Q: How did the pIC50 turn out when `Cc1cc(C(F)(F)F)ccc1Nc1nc(SC2CCOC2C)nc2c1CCN(c1ncccc1C(F)(F)F)CC2` (stereo not drawn) [Example 368, 2,5-Anhydro-1,4-dideoxy-3-S-(4-{[2-methyl-4-(trifluoromethyl)phenyl]amino}-7-[3-(trifluoromethyl)pyridin-2-yl]-6,7,8,9-tetrahydro-5H-pyrimido[4,5-d]azepin-2-yl)-3-thiopentitol] was run?
A: 7.70

Q: `Cc1cc(C(F)(F)F)ccc1Nc1nc(SC2CCOC2C)nc2c1CCN(c1ncccc1C(F)(F)F)CC2` (stereo not drawn) [Example 369, 2,5-Anhydro-1,4-dideoxy-3-S-(4-{[2-methyl-4-(trifluoromethyl)phenyl]amino}-7-[3-(trifluoromethyl)pyridin-2-yl]-6,7,8,9-tetrahydro-5H-pyrimido[4,5-d]azepin-2-yl)-3-thiopentitol] was tested. Which pIC50 did it give?
A: 8.00

Q: With `CN1CCC(C)(C)c2ccc(Nc3nc(SCc4ccccc4)nc4c3CCN(c3ncccc3C(F)(F)F)CC4)cc21` [Example 370, 2-[(Phenylmethyl)sulfanyl]-7-[3-(trifluoromethyl)pyridin-2-yl]-N-(1,4,4-trimethyl-1,2,3,4-tetrahydroquinolin-7-yl)-6,7,8,9-tetrahydro-5H-pyrimido[4,5-d]azepin-4-amine] as the compound, how does the pIC50 read?
A: 5.58

Q: With `CN1CCC(C)(C)c2ccc(Nc3nc(SC4CCCCC4)nc4c3CCN(c3ncccc3C(F)(F)F)CC4)cc21` [Example 371, 2-(Cyclohexylsulfanyl)-7-[3-(trifluoromethyl)pyridin-2-yl]-N-(1,4,4-trimethyl-1,2,3,4-tetrahydroquinolin-7-yl)-6,7,8,9-tetrahydro-5H-pyrimido[4,5-d]azepin-4-amine] as the compound, how does the pIC50 read?
A: < 5.18

Q: `CC(C)Sc1nc2c(c(Nc3ccc4c(c3)N(C)CCC4(C)C)n1)CCN(c1ncccc1C(F)(F)F)CC2` [Example 372, 2-[(1-Methylethyl)sulfanyl]-7-[3-(trifluoromethyl)pyridin-2-yl]-N-(1,4,4-trimethyl-1,2,3,4-tetrahydroquinolin-7-yl)-6,7,8,9-tetrahydro-5H-pyrimido[4,5-d]azepin-4-amine] was tested. Which pIC50 did it give?
A: 6.48
